{"source": "patent US9446051B2", "about": "“Neuroprotection and myelin repair using nestorone®” (The Population Council, Inc., priority 2009, dated 2016)", "key": {"[1]": {"test_system": "hippocampi of ovariectomized female Sprague Dawley rats", "type": "in vivo", "conditions": "progestin plus E2, hippocampi 24 hours after injection, FIG. 9A", "procedure": "The impact of the combination of 17β-estradiol (E2) and various progestins on neurogenesis and cell viability […] was also carried out. Young adult ovariectomized female Sprague Dawley rates were thus divided into six groups and received injection of either E2 alone or E2 combined with one of the progestins. Hippocampi were isolated 24 hours later for Western blot analysis and flow cytometry to determine the impact of treatment on cell viability and neurogenesis respectively. The expression level of PCNA was assessed to determine the impact of the treatment compounds on entry into the cell cycle required for neurogenesis."}, "[2]": {"test_system": "organotypic neonatal rat or mouse cerebellar slice culture", "experiment": "Myelination in organotypic cerebellar slice culture, measured by myelin basic protein (MBP) immunoreactivity", "type": "cell-based", "description": "In experiments conducted in organotypic neonatal rat or mouse cerebellar slice culture, progesterone accelerated axon myelination (13,14)."}, "[3]": {"test_system": "Bax/Bcl-2", "experiment": "In vivo apoptotic activity, Bax/Bcl-2 ratio by Western blot", "conditions": "indicator of in vivo apoptotic activity", "description": "The effects of various progestins on apoptosis was studied using Western blot analysis to determine the expression level of Bax, an apoptosis mediator by […] to the mitochondria to release apoptotic factors such as cytochrome c and Bcl-2. The ratio of Bax to Bcl-2 was used as an indicator of in vivo apoptotic activity."}, "[4]": {"test_system": "neural progenitor cell (NPC)", "experiment": "Neural progenitor cell proliferation, BrdU chemiluminescence ELISA", "type": "cell-based, rat", "procedure": "In vitro studies were carried out to determine neural progenitor cell (NPC) regeneration in rats. Cell proliferation was determined by S phase incorporation of BrdU. After 4 to 6 hours starvation (medium without supplements), rNPCs were loaded with 10 μM BrdU in the presence or absence of bFGF and varying concentrations of P4 or test progestins in unsupplemented maintenance medium for 1d. The rNPCs were then processed as described previously (1, 14). After subtracting the value of the blank (without BrdU loading), data were analyzed using a one-way ANOVA, followed by a Neuman-Keuls post hoc test."}, "[5]": {"test_system": "androgenic, estrogenic and glucocorticoid responses", "conditions": "cited from earlier work"}, "[6]": {"test_system": "hippocampus of Sprague-Dawley ovariectomized female rats", "experiment": "In vivo NPC proliferation and cell viability in ovariectomized rats (Western blot, FACS of BrdU+ cells)", "parameters": "species or system rat", "procedure": "The generalized ability of the above in vitro findings to the in vivo condition were investigated. Analyses of NPC proliferation in rats and cell viability were conducted in three-month-old Sprague-Dawley ovariectomized female rats with various of the progestins. […] In order to assess the total number of BrdU+ cells, the contralateral hippocampal hemisphere used for protein analysis was fixed and processed by FACS analysis. The total number of BrdU+ cells per each hippocampus was determined and normalized to that of vehicle control. […] In order to measure cell viability in terms of promotion of mitochondrial function and reduction in oxidative damage expression of the alpha subunit of ATP synthase-Complex V (CVα) of the mitochondrial oxidative phosphorylation pathway was assessed by Western blot analysis."}, "[7]": {"test_system": "primary hippocampal neurons", "experiment": "Neuroprotection of primary hippocampal neurons against glutamate, LDH release", "type": "cell-based", "procedure": "The effect of NES and other progestins on CNS plasticity and the neuroprotective efficacy against glutamate toxicity has also been evaluated. LDH was measured, as a well-accepted assay, to determine such effect after exposure of the cells to glutamate, and the neuronal viability was assessed under the action of various progestins.\nComparisons of neuroprotection against neurodegenerative insults were carried out. Efficacy was determined in connection with the protection of primary hippocampal neurons against degeneration induced by excitoxic glutamate. Hippocampal neuronal cultures grown on […] culture plates for 7d in vitro were pretreated with vehicle alone or test compounds, followed by exposure to 200 μM glutamate as previously described (13). After glutamate exposure, cultures were washed with HEPES-buffered saline solution and replaced with fresh NBM containing the test compounds or combinations. Cultures were returned to the incubator and incubated for 24 hours prior to analysis of neuronal viability using colorimetric LDH release in the media. Dose-response analysis was conducted for each of the progestins tested, and the results are shown in FIGS. 7A-F. Neuroprotective efficiency was calculated as follows: NE=(Vsample−Vglutamate)/(Vsubcontrol−Vglutamate)."}, "[8]": {"test_system": "PR^lacz mice with MCAO", "experiment": "Transient middle cerebral artery occlusion (MCAO), steroid treatment after reperfusion", "type": "in vivo, mouse", "procedure": "In experiments conducted using progesterone receptor (PR) deficient mice (PR^−/−) compared with PR^+/− and PR^+/+ mice and both progesterone and Nestorone® were administered after ischemia and reperfusion.\nIn order to test the effect of steroid treatments after reperfusion, adult male PR^lacz mice were anesthetized and the middle cerebral artery (MCA) was occluded for one hour with an intraluminal filament. After ligature of the left common carotid artery, a nylon monofilament coated with thermo-melting glue was introduced through an arteriotomy performed on the external carotid artery and advanced into the internal carotid artery. Occlusion of the MCA was controlled by monitoring the cerebral blood flow within the MCA territory by laser Doppler flowmetry. The filament was withdrawn one hour after occlusion to allow reperfusion, and the common carotid artery ligature was also removed. The mice were randomly and blindly assigned to either progesterone, allopregnanolone or Nestorone®, or vehicle-treated (sesame oil; sigma). All of the steroids were initially dissolved in a small volume of ethanol and further diluted in sesame oil to obtain the desired final steroid concentrations. Injections were given interperitoneally (IP) at 1, 6, and 24 hours after MCA occlusion (MCAO) according to established neuroprotective protocols. Treated mice were killed at 48 hours after MCAO.\nCerebral infarct volumes and areas were determined after triphenyltetrazolium chloride (TTC) staining of brain sections. The details of this procedure are set forth in “Progesterone Receptors: A Key For Neuroprotection In Experimental Stroke,” Endocrinology, August 2012, 153(8), pp. 1-11, which is incorporated herein by reference thereto in its entirety. […] In FIGS. 11, 12 and 13, after the administration of progesterone and Nestorone®, in neuronal density the infarct (FIG. 11) and the penumbra (FIG. 12) can clearly be shown. In FIG. 13 the decrease in […] in the penumbra after administration of progesterone and Nestorone® is also clearly shown."}, "[9]": {"test_system": "lysolecithin-demyelinated cerebellar slices", "experiment": "Remyelination of lysolecithin-demyelinated cerebellar slices (MBP staining intensity)", "type": "cell-based, rat or mouse", "conditions": "NES 20 μM, 3 days of incubation", "procedure": "In the same animal model, cerebellar slices were cultured until myelination was complete, then incubated overnight with lysolecithin (LYSO) to produce demyelination utilizing a known technique, (15) followed by 3 days of incubation with NES 20 μM in fresh culture medium (10% penetration in slices). Slices were immunostained for MBP. […] MBP staining intensity was measured in cerebellar slices after completion of normal myelination, after demyelination with lysolecithin, and after 3 days of incubation with NES at 20 μm, RU486 at 10 μM, or NES+RU486."}, "[10]": {"conditions": "PR^+/+ mice, 48 hours after MCAO"}}, "data": [{"smiles": "C=C1C[C@H]2[C@@H]3CCC4=CC(=O)CC[C@@H]4[C@H]3CC[C@]2(C)[C@@]1(OC(C)=O)C(C)=O", "note": "[Nestorone®, 16-methylene-17α-acetoxy-19-norpregn-4-ene-3,20-dione]", "values": [{"measurement": "PCNA expression and neural progenitor cell proliferation", "setting": "[1]", "value": "greatest magnitude of PCNA expression and neural progenitor cell proliferation"}, {"measurement": "promyelinating potency relative to PROG", "setting": "[2]", "value": "significantly more potent than PROG"}, {"measurement": "concentration of equal promyelinating activity", "setting": "[2]; NES at 20 μm as active as PROG at 50 μm (FIG. 1)", "value": 20, "unit": "μm"}, {"measurement": "myelination measured by myelin basic protein (MBP) immunoreactivity", "setting": "[2]; cerebellar slice culture", "value": "promote dose-dependent myelination"}, {"measurement": "ratio of Bax/Bcl-2 expression", "setting": "[3]", "value": "no effect"}, {"measurement": "proliferation of progenitor cells compared with progesterone", "setting": "[4]; FIG. 3 and FIG. 4", "value": "as effective or even more effective than progesterone"}, {"measurement": "NPC proliferation (BrdU incorporation) compared with progesterone", "setting": "[4]; at 24 hours, FIGS. 6A-D", "value": "comparably efficacious at their EC100 concentrations"}, {"measurement": "androgenic response", "setting": "[5]", "value": "no androgenic or estrogenic action at all"}, {"measurement": "estrogenic response", "setting": "[5]", "value": "no androgenic or estrogenic action at all"}, {"measurement": "glucocorticoid response", "setting": "[5]", "value": "does not elicit a glucocorticoid effect except at doses 2.000-fold the therapeutic dose"}, {"measurement": "total number of BrdU+ cells per hippocampus", "setting": "[6]; FACS, normalized to vehicle control, FIG. 8B", "value": "slightly superior to progesterone in significantly increasing Brd+ cell numbers"}, {"measurement": "CDC2 protein expression", "setting": "[6]; Western blot", "value": "significantly increased"}, {"measurement": "PCNA expression at the protein level", "setting": "[6]; Western blot, FIG. 8A", "value": "slightly superior to progesterone"}, {"measurement": "expression of alpha subunit of ATP synthase-Complex V (CVα)", "setting": "[6]; Western blot, FIG. 8C", "value": "increased CVA expression even greater than progesterone and levonorgestrel"}, {"measurement": "neuroprotective efficacy against glutamate toxicity (LDH)", "setting": "[7]; FIG. 5, NES and PROG at 10−7M", "value": "exerted the higher efficacy"}, {"measurement": "neuroprotective efficacy against 200 μM glutamate (LDH release) compared with progesterone", "setting": "[7]; dose-response, FIGS. 7A-F", "value": "comparable neuroprotective efficacy to that of progesterone"}, {"measurement": "total infarct volume and ischemic lesions in cerebral cortex and subcortical structures, PR^+/+ mice", "setting": "[8]; PR^+/+ mice", "value": "clearly reduced"}, {"measurement": "increase of time on the rotarod", "setting": "[8]; [10]", "value": 33, "unit": "%"}, {"measurement": "reduction of ischemic lesions in cerebral cortex", "setting": "[8]; [10]", "value": 22, "unit": "%"}, {"measurement": "reduction of ischemic lesions in subcortical structures", "setting": "[8]; [10]", "value": 52, "unit": "%"}, {"measurement": "reduction of total infarct volume", "setting": "[8]; PR^+/+ mice, 48 hours after MCAO, IP at 1, 6 and 24 hours", "value": 32, "unit": "%"}, {"measurement": "total infarct volume and ischemic lesions in cerebral cortex and subcortical structures, PR^+/− mice", "setting": "[8]; PR^+/− mice", "value": "not"}, {"measurement": "protection against ischemic damage compared with progesterone", "setting": "[8]; PR^−/−, PR^+/− and PR^+/+ mice, after ischemia and reperfusion", "value": "at least comparable results"}, {"measurement": "efficient neuroprotective dose", "setting": "[8]; after stroke", "value": 0.08, "unit": "mg/kg"}, {"measurement": "dose improving neurological outcomes relative to that of progesterone", "setting": "[8]; mouse, in vivo", "value": 100, "unit": "times lower"}, {"measurement": "microglial density in the penumbra (neuroinflammatory responses)", "setting": "[8]; treatment after stroke", "value": "reduced microglial density"}, {"measurement": "neuronal density in the infarct and in the penumbra", "setting": "[8]; treatment after stroke", "value": "significantly increases the neuronal density"}, {"measurement": "remyelination after lysolecithin demyelination", "setting": "[9]", "value": "produced remyelination"}]}]}
